Values quoted from earlier work, collected in patent publication US8092783B2, “Gadolinium containing prussian blue nanoparticles as nontoxic MRI contrast agents having high relaxivity” (Kent State University, priority 2009, dated 2012).

Conditions: magnetic field strength 1.5 Tesla; commercial or literature agents

## CNC[C@H](O)[C@@H](O)[C@H](O)[C@H](O)CO.CNC[C@H](O)[C@@H](O)[C@H](O)[C@H](O)CO.O=C([O-])CN(CCN(CC(=O)[O-])CC(=O)O)CCN(CC(=O)[O-])CC(=O)O.[Gd+3] [Magnevist@]
  relaxivity r1: 4.1 mM⁻¹ s⁻¹
